{"source": "ChEMBL document CHEMBL6096628", "about": "“Discovery of a Highly Potent and Selective BRD9 PROTAC Degrader Based on E3 Binder Investigation for the Treatment of Hematological Tumors” (J Med Chem, 2024)", "key": {"MV4-11 [1]": {"test_system": "MV4-11", "assay": "Upregulation of C-myc expression level in human MV4-11 cells at 0.1 to 10 nM measured after 24 to 48 hrs by Western blot analysis", "assay_type": "functional, cell-based", "details": "dose 0.1-10 nM, time 24-48 hrs"}, "MV4-11 [2]": {"test_system": "MV4-11", "assay": "Downregulation of CHEK2 protein expression in human MV4-11 cells by proteomic analysis", "assay_type": "functional, cell-based"}, "U-937": {"test_system": "U-937", "assay": "Antiproliferative activity against human U-937 cells assessed as inhibition of cell growth incubated for 7 days by MTS reagent based assay", "assay_type": "functional", "details": "U-937, 168 h"}, "MV4-11 [3]": {"test_system": "MV4-11", "assay": "Induction of apoptosis in human MV4-11 cells assessed as necrotic cells at 10 nM incubated for 48 hrs by Annexin V-FITC/PI staining based flow cytometric analysis (reference value: 0.07 %)", "assay_type": "functional"}, "MV4-11 [4]": {"test_system": "MV4-11", "assay": "Induction of apoptosis in human MV4-11 cells assessed as viable cells at 0.1 nM incubated for 48 hrs by Annexin V-FITC/PI staining based flow cytometric analysis (reference value: 94.80 %)", "assay_type": "functional", "details": "read-out: Activity"}, "MV4-11 [5]": {"test_system": "MV4-11", "assay": "Antitumor activity against human MV4-11 cells xenografted in Balb/c nude mouse assessed as tumor weight at 20 mg/kg, ip administered once daily for 20 days (reference value: 1.30 +/- 0.51 g)", "assay_type": "functional", "details": "time 20 day"}, "Kasumi 1": {"test_system": "Kasumi 1", "assay": "Antiproliferative activity against human Kasumi 1 cells assessed as inhibition of cell growth incubated for 7 days by MTS reagent based assay", "assay_type": "functional", "details": "Kasumi 1, 168 h"}, "MV4-11 [6]": {"test_system": "MV4-11", "assay": "Downregulation of CELF1 protein expression in human MV4-11 cells by proteomic analysis", "assay_type": "functional, cell-based"}, "MV4-11 [7]": {"test_system": "MV4-11", "assay": "Upregulation of C-myc mRNA expression level in human MV4-11 cells at 0.1 to 10 nM measured after 24 to 48 hrs by qPCR analysis", "assay_type": "functional, cell-based", "details": "dose 0.1-10 nM, time 24-48 hrs"}, "MV4-11 [8]": {"test_system": "MV4-11", "assay": "Antitumor activity against human MV4-11 cells xenografted in Balb/c nude mouse assessed as tumor volume at 20 mg/kg, ip administered once daily for 20 days (reference value: 1187 +/- 449 mm^3)", "assay_type": "functional", "details": "time 20 day"}, "[9]": {"assay": "Toxicity in Balb/c nude mouse xenografted with human OCI-Ly10 cells assessed as mortality at 30 mg/kg, po administered once daily for 18 days", "assay_type": "organism-based", "details": "in vivo, 432 h, time 18 day"}, "[10]": {"assay": "AUC (0 to t) in ICR mouse at 20 mg/kg, IG administered via gavage and measured after 24 hrs by LC-MS analysis", "assay_type": "ADME, organism-based", "details": "in vivo, po"}, "[11]": {"assay": "Toxicity in Balb/c nude mouse xenografted with human MV4-11 cells assessed as behavioral abnormalities at 20 mg/kg, ip administered once a day for 20 days", "assay_type": "organism-based", "details": "in vivo, 480 h, time 20 day"}, "MV4-11 [12]": {"test_system": "MV4-11", "assay": "Cell cycle arrest in human MV4-11 cells assessed as accumulation of cells at G1 phase at 0.01 to 10 nM incubated for 24 hrs by PI staining based flow cytometric analysis", "assay_type": "functional", "details": "dose 0.01-10 nM"}, "MV4-11 [13]": {"test_system": "MV4-11", "assay": "Induction of apoptosis in human MV4-11 cells assessed as late apoptotic cells at 1 nM incubated for 48 hrs by Annexin V-FITC/PI staining based flow cytometric analysis (reference value: 0.91 %)", "assay_type": "functional"}, "OCI-Ly10 [14]": {"test_system": "OCI-Ly10", "assay": "Antiproliferative activity against human OCI-Ly10 cells assessed as inhibition of cell growth incubated for 7 days by MTS reagent based assay", "assay_type": "functional", "details": "OCI-Ly10, 168 h"}, "MOLM-13": {"test_system": "MOLM-13", "assay": "Antiproliferative activity against human MOLM-13 cells assessed as inhibition of cell growth incubated for 7 days by MTS reagent based assay", "assay_type": "functional", "details": "MOLM-13, 168 h"}, "OCI-Ly10 [15]": {"test_system": "OCI-Ly10", "assay": "Antitumor activity against human OCI-Ly10 cells xenografted in Balb/c nude mouse assessed as tumor volume at 30 mg/kg, po administered once daily for 18 days (reference value: 561 +/- 370 mm^3)", "assay_type": "functional", "details": "time 18 day"}, "MV4-11 [16]": {"test_system": "MV4-11", "assay": "Antitumor activity against human MV4-11 cells xenografted in Balb/c nude mouse assessed as relative tumor volume at 20 mg/kg, ip administered once daily for 20 days (reference value: 7.85 +/- 3.69)", "assay_type": "functional", "details": "time 20 day"}, "MV4-11 [17]": {"test_system": "MV4-11", "assay": "Induction of apoptosis in human MV4-11 cells assessed as early apoptotic cells at 1 nM incubated for 48 hrs by Annexin V-FITC/PI staining based flow cytometric analysis (reference value: 4.22 %)", "assay_type": "functional"}, "Mus musculus [18]": {"test_system": "Mus musculus", "assay": "Upregulation of BRD7 expression in Balb/c nude mouse tumor xenografted with human MV4-11 cells at 20 mg/kg, ip administered once daily for 20 days by Western blot analysis", "assay_type": "functional, organism-based", "details": "time 20.0 day"}, "MV4-11 [19]": {"test_system": "MV4-11", "assay": "Downregulation of beta-catenin mRNA expression level in human MV4-11 cells at 0.1 to 10 nM measured after 24 to 48 hrs by Western blot analysis", "assay_type": "functional, cell-based", "details": "dose 0.1-10 nM, time 24-48 hrs"}, "SU-DHL-2": {"test_system": "SU-DHL-2", "assay": "Antiproliferative activity against human SU-DHL-2 cells assessed as inhibition of cell growth incubated for 7 days by MTS reagent based assay", "assay_type": "functional", "details": "SU-DHL-2, 168 h"}, "Mus musculus [20]": {"test_system": "Mus musculus", "assay": "Upregulation of BRD4 expression in Balb/c nude mouse tumor xenografted with human MV4-11 cells at 20 mg/kg, ip administered once daily for 20 days by Western blot analysis", "assay_type": "functional, organism-based", "details": "time 20.0 day"}, "[21]": {"molecular_target": "T1, Protein cereblon/Bromodomain-containing protein 9 (Homo sapiens, UniProt Q9H8M2+Q96SW2)", "T1 sequence (Q96SW2 whole entry, looked up)": "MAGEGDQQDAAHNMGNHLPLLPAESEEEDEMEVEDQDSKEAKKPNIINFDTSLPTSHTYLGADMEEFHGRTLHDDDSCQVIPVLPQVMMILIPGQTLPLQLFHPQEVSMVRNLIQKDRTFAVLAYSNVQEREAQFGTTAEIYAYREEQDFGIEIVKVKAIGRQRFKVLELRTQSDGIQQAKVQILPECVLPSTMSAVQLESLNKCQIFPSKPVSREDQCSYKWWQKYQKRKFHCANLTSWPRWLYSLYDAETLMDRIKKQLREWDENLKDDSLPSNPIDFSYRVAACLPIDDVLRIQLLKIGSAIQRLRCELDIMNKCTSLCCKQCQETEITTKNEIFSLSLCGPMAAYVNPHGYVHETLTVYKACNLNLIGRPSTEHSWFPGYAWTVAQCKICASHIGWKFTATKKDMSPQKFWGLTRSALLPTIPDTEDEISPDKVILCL", "T1 sequence (Q9H8M2 whole entry, looked up)": "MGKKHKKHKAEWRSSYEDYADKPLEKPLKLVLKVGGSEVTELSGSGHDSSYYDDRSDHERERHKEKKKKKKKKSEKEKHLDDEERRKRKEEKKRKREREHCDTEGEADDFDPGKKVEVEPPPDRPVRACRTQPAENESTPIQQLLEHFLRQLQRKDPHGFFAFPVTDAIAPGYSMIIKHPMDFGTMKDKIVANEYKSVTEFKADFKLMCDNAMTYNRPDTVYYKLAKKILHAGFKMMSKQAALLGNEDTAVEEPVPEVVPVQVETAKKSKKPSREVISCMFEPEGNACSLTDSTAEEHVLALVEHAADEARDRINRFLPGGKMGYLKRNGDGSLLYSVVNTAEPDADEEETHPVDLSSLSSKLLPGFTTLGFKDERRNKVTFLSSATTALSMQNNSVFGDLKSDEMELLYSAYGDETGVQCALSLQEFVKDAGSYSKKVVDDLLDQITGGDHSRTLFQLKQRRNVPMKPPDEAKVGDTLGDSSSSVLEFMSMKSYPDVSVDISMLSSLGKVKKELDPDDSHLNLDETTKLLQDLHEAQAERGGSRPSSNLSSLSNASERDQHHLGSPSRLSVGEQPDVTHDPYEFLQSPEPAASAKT", "assay": "PROTAC activity at CRBN/BRD9 in human MV4-11 cells assessed as induction of BRD9 degradation at 1 nM by Western blot analysis relative to control", "assay_type": "cell-based"}, "[22]": {"assay": "Toxicity in Balb/c nude mouse xenografted with human OCI-Ly10 cells assessed as effect on body weight at 30 mg/kg, po administered once daily for 18 days", "assay_type": "organism-based", "details": "in vivo, 432 h, time 18 day"}, "MV4-11 [23]": {"test_system": "MV4-11", "assay": "Downregulation of AXIN2 expression level in human MV4-11 cells at 0.1 to 10 nM measured after 24 to 48 hrs by Western blot analysis", "assay_type": "functional, cell-based", "details": "dose 0.1-10 nM, time 24-48 hrs"}, "[24]": {"molecular_target": "T1, Protein cereblon/Bromodomain-containing protein 9", "assay": "PROTAC activity at CRBN/BRD9 in human MV4-11 cells assessed as induction of BRD9 degradation at 0.33 nM in presence of N-(1,1-dioxidotetrahydro-2H-thiopyran-4-yl)-5-ethyl-4-oxo-7-(3-(trifluoromethyl)phenyl)-4,5-dihydrothieno[3,2-c]pyridine-2-carboximidamide by Western blot analysis", "assay_type": "cell-based"}, "[25]": {"assay": "Toxicity in Balb/c nude mouse xenografted with human MV4-11 cells assessed as weight loss at 20 mg/kg, ip administered once a day for 20 days", "assay_type": "organism-based", "details": "in vivo, 480 h, time 20 day"}, "MV4-11 [26]": {"test_system": "MV4-11", "assay": "Induction of apoptosis in human MV4-11 cells assessed as necrotic cells at 0.1 nM incubated for 48 hrs by Annexin V-FITC/PI staining based flow cytometric analysis (reference value: 0.07 %)", "assay_type": "functional"}, "[27]": {"molecular_target": "T1, Protein cereblon/Bromodomain-containing protein 9", "assay": "PROTAC activity at CRBN/BRD9 in human MV4-11 cells assessed as induction of BRD9 degradation at 0.33 nM in presence of MG132 by Western blot analysis", "assay_type": "cell-based"}, "[28]": {"molecular_target": "T1, Protein cereblon/Bromodomain-containing protein 9", "assay": "PROTAC activity at CRBN/BRD9 in human MV4-11 cells assessed as induction of BRD9 degradation at 0.33 nM in presence of pomalidomide by Western blot analysis", "assay_type": "cell-based"}, "MV4-11 [29]": {"test_system": "MV4-11", "assay": "Induction of apoptosis in human MV4-11 cells assessed as viable cells at 10 nM incubated for 48 hrs by Annexin V-FITC/PI staining based flow cytometric analysis (reference value: 94.80 %)", "assay_type": "functional", "details": "read-out: Activity"}, "[30]": {"molecular_target": "T1, Protein cereblon/Bromodomain-containing protein 9", "assay": "PROTAC activity at CRBN/BRD9 in human MV4-11 cells assessed as induction of BRD9 degradation at 0.33 nM by Western blot analysis relative to control", "assay_type": "cell-based", "details": "time 0.5-24 hrs"}}, "note": "Calls of active or inactive are those of the source. The calls are words filed in the database; no cut-off is given here.", "data": [{"smiles": "COc1cc(-c2cn(C)c(=O)c3ccccc23)cc(OC)c1CN1CCC(CN2CCC(c3ccc4c5c(cccc35)C(=O)N4C3CCC(=O)NC3=O)CC2)CC1", "note": "(centres undefined)", "values": [{"measurement": "Activity", "setting": "MV4-11 [1]", "result": "Active"}, {"measurement": "Activity", "setting": "MV4-11 [2]", "result": "Active"}, {"measurement": "IC50", "setting": "U-937", "result": 1060, "unit": "nM"}, {"measurement": "Activity", "setting": "MV4-11 [3]", "result": 0.21, "unit": "%"}, {"measurement": "viability at 0.0001 µM", "setting": "MV4-11 [4]", "result": 87.4, "unit": "%"}, {"measurement": "Activity", "setting": "MV4-11 [5]", "result": 0.9, "unit": "g"}, {"measurement": "IC50", "setting": "Kasumi 1", "result": 1.13, "unit": "nM"}, {"measurement": "Activity", "setting": "MV4-11 [6]", "result": "Active"}, {"measurement": "Activity", "setting": "MV4-11 [7]", "result": "Active"}, {"measurement": "Activity", "setting": "MV4-11 [8]", "result": 766, "unit": "mm3"}, {"measurement": "Activity", "setting": "[9]", "result": "Non-toxic"}, {"measurement": "AUC(0-t) at 24 h", "setting": "[10]", "result": 1300, "unit": "ng·h/mL"}, {"measurement": "Activity", "setting": "[11]", "result": "Non-toxic"}, {"measurement": "Activity", "setting": "MV4-11 [12]", "result": "Active"}, {"measurement": "Activity", "setting": "MV4-11 [13]", "result": 5.74, "unit": "%"}, {"measurement": "IC50", "setting": "OCI-Ly10 [14]", "result": 1.04, "unit": "nM"}, {"measurement": "IC50", "setting": "MOLM-13", "result": 0.37, "unit": "nM"}, {"measurement": "Activity", "setting": "OCI-Ly10 [15]", "result": 309, "unit": "mm3"}, {"measurement": "Activity", "setting": "MV4-11 [16]", "result": 4.99}, {"measurement": "Activity", "setting": "MV4-11 [17]", "result": 13.79, "unit": "%"}, {"measurement": "Activity", "setting": "Mus musculus [18]", "result": "Active"}, {"measurement": "Activity", "setting": "MV4-11 [19]", "result": "Active"}, {"measurement": "IC50", "setting": "SU-DHL-2", "result": 38.6, "unit": "nM"}, {"measurement": "Activity", "setting": "Mus musculus [20]", "result": "Active"}, {"measurement": "Activity", "setting": "[21]", "result": 92.5, "unit": "%"}, {"measurement": "Activity", "setting": "[22]", "result": "Non-toxic"}, {"measurement": "Activity", "setting": "MV4-11 [23]", "result": "Active"}, {"measurement": "Activity", "setting": "[24]", "result": "inactive"}, {"measurement": "Activity", "setting": "[25]", "result": "Non-toxic"}, {"measurement": "Activity", "setting": "MV4-11 [26]", "result": 0.03, "unit": "%"}, {"measurement": "Activity", "setting": "[27]", "result": "Not active; Compound Functioned Through Ubiquitin-Proteasome System"}, {"measurement": "Activity", "setting": "[28]", "result": "inactive"}, {"measurement": "viability at 0.01 µM", "setting": "MV4-11 [29]", "result": 74.8, "unit": "%"}, {"measurement": "Activity", "setting": "[30]", "result": "Time-dependent-effect"}]}]}
